# Biological target: SINV nsP2 (Sindbis virus, UniProt P03317)
# Sequence (P03317 541-1347): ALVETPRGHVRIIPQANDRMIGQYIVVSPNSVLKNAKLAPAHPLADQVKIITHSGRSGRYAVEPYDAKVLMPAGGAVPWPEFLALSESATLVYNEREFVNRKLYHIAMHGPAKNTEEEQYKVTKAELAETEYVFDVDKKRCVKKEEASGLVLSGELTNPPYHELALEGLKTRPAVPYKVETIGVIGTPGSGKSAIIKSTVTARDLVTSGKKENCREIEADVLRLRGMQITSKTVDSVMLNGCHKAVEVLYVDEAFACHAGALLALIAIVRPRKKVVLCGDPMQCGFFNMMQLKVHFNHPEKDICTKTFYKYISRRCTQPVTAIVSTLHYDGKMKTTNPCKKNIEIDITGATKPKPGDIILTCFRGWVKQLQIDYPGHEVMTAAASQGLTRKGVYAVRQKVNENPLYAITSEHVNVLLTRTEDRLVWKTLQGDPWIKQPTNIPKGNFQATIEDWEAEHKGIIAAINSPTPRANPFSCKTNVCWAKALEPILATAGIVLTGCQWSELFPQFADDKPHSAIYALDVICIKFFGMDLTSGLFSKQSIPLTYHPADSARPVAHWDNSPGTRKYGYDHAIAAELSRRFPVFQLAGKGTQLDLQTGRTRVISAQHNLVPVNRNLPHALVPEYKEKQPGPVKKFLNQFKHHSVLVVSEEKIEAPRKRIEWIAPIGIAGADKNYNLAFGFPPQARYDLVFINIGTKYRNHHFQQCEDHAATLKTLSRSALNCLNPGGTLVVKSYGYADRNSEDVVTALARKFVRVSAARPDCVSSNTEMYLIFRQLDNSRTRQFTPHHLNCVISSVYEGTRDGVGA
smiles,measurement,value
Nc1ncnc2c1ncn2[C@@H]1O[C@H](COP(=O)(O)OP(=O)(O)OP(=O)(O)O)[C@@H](O)[C@H]1O [ATP],Km,these additions increase the ATPase Km

# — doi:10.1101/2025.06.03.657755v1 (biorxiv, 2025)
